The values that follow come from PMC8668026 (ACS infectious diseases, 2021).

Series [1] deals with K. pneumoniae ATCC13883. Briefly: MIC in K. pneumoniae. It counts as cell-based, Klebsiella pneumoniae.
A further series concerns E. coli WT-pore. Briefly: MIC, 2-fold broth dilution, hyperporinated WT-pore. The format is cell-based, Escherichia coli. To be noted: for MIC: Escherichia coli, read-out: MIC WT-pore. On the technique in general: Dilution methods test growth across graded concentrations, often in twofold steps.
A further series deals with E. coli BW25113 (WT). Briefly: MIC, 2-fold broth dilution, E. coli WT. The note with it: for MIC: Escherichia coli, BW25113, read-out: MIC WT. The format is cell-based, Escherichia coli.
For the next series, the system named is E. coli ΔtolC. Briefly: MIC, 2-fold broth dilution, efflux-deficient ΔtolC. The note with it: average of two replicates. It counts as cell-based, Escherichia coli.
Another series has as its system E. coli WT-pore cells. Briefly: Checkerboard potentiation of novobiocin/erythromycin. It counts as cell-based, Escherichia coli.
Series [2] relates to E. cloacae ATCC13047. Briefly: MIC in E. cloacae. The format is cell-based, Enterobacter cloacae.
The test system of the next series is A549 cells. Briefly: MTS cytotoxicity assay. It counts as cell-based, human. To be noted: average of two replicates. (In general: Tetrazolium dyes change colour on reduction, which living cells bring about.)
Another series has as its system E. coli ΔtolC-pore. The experiment in a line: MIC, 2-fold broth dilution, ΔtolC-pore. It counts as cell-based, Escherichia coli. The note with it: average of two replicates.
Series [3] concerns the target T1, AcrA (Escherichia coli, UniProt P0AE06). To be noted: periplasm of WT-pore cells; trypsin; accumulation of K46-K346 fragment.
A further series addresses AcrAB−TolC (Escherichia coli, UniProt P0AE06+P31224). To be noted: steady-state Nile Red accumulation in WT-pore cells with 32 μM vs 0 μM compound.
For series [4], the system named is E. cloacae ATCC13047. The experiment in a line: Potentiation of NOV, ERY, CIP in E. cloacae. The format is cell-based, Enterobacter cloacae.
Series [5] concerns K. pneumoniae ATCC13883. Briefly: Potentiation of NOV, ERY, CIP in K. pneumoniae. It counts as cell-based, Klebsiella pneumoniae.
The next series addresses AcrB (Escherichia coli, UniProt P31224). To be noted: read-out: KD AcrB; SPR; ref [38] and [47]; cited from earlier work.
Series [6] has as its target T1, AcrA. To be noted: read-out: KD AcrA; SPR; ref [38] and [47]; cited from earlier work.
[7] abbreviates: Klebsiella pneumoniae, ATCC13883.
[8] abbreviates: Enterobacter cloacae, ATCC13047.

In brackets after ≈: the same amount, converted by molar mass. Square brackets hold non-standard residues; d marks the D form. Peptide text beside a SMILES is read from it. * marks the point of attachment. ξ: configuration not given here. ξR = N=C(N)NCCCC(N)C(=O)O; βNA = c1ccc2cc(N*)ccc2c1

T1 sequence (P0AE06 25-397): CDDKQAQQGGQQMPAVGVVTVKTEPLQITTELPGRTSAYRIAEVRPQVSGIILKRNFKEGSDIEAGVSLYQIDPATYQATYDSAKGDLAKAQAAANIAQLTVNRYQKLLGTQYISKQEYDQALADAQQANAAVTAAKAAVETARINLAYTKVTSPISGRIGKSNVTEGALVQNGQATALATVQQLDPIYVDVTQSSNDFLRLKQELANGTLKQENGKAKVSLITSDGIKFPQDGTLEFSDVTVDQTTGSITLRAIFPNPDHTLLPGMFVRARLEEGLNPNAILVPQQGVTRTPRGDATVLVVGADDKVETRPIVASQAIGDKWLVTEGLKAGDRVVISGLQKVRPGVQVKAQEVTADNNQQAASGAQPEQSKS
AcrAB−TolC, sequence (P31224 whole entry): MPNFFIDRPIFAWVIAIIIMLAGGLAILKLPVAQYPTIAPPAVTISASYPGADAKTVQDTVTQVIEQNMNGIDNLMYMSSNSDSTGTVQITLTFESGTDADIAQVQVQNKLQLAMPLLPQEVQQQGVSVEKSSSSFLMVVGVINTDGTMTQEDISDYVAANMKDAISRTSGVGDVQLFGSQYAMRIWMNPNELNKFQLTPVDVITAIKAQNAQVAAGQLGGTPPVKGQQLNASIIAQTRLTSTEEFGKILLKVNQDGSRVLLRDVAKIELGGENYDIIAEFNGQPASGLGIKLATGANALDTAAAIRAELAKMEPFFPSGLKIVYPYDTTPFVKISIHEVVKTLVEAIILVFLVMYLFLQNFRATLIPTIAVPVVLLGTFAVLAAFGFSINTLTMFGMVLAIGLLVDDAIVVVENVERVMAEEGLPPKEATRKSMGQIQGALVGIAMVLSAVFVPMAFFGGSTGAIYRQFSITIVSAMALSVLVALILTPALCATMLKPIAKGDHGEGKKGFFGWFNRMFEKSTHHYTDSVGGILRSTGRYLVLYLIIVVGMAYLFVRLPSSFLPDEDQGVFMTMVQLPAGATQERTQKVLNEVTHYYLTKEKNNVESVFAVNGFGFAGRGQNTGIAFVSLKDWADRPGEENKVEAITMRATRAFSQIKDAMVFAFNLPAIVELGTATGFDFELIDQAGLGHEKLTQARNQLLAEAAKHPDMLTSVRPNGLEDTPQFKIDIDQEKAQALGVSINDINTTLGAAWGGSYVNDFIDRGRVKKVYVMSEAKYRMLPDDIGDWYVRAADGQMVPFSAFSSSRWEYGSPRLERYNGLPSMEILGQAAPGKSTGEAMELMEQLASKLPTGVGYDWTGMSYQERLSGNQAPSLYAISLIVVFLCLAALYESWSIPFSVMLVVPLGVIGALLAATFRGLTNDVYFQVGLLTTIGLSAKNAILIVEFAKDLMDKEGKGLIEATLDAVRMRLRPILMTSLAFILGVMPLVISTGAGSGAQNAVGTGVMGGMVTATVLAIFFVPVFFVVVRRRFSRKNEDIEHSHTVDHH
AcrAB−TolC, sequence (P0AE06 25-397): as the sequence (P0AE06 25-397) above
AcrAB−TolC, sequence (P02930 23-493, further chain): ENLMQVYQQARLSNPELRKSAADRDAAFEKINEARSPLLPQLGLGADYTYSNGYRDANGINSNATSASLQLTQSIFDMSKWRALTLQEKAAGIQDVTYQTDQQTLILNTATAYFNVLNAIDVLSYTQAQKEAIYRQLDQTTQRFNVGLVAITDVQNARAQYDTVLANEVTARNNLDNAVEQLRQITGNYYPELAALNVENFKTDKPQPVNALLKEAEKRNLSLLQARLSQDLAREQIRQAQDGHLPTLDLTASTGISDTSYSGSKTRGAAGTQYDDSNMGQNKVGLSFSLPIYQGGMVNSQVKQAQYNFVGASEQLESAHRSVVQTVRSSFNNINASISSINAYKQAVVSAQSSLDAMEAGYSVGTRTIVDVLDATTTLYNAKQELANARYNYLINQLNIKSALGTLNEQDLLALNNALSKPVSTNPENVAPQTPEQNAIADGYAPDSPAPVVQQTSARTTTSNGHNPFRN
AcrB, sequence (P31224 whole entry): as the sequence (P31224 whole entry) above

By MIC is commonly meant the smallest concentration in the dilution series that meets the test's criterion for growth inhibition. The CC50 is the concentration giving 50% cytotoxicity. On to `Cc1cc(N)c2cc(NC(=O)/C=C/c3ccccc3Cl)ccc2n1` [Compound 2], for which the MIC in the series on K. pneumoniae ATCC13883 [1] (K. pneumoniae ATCC13883, test compounds, average of two replicates) was over 100 µM. Also, the “MIC WT-pore” value in the series with E. coli WT-pore (E. coli hyperporinated WT-pore, average of two replicates) was found to be 100 µM (≈ 33.8 µg/mL). For the same molecule, the “MIC WT” value in the series with E. coli BW25113 (WT) (E. coli WT, average of two replicates) was 200 µM (≈ 67.6 µg/mL). Also, the “MIC ΔtolC” value against E. coli ΔtolC stood at 12.5 µM (≈ 4.22 µg/mL). For the same molecule, the “potentiation MPC4 (ERY)” value with E. coli WT-pore cells (minimum concentration reducing MIC of erythromycin 4-fold) came out at 3.1 µM. In addition, the “potentiation MPC4 (NOV)” value with E. coli WT-pore cells (minimum concentration reducing MIC of novobiocin 4-fold) stood at 1.56 µM. The molecule further gave an MIC in the series on E. cloacae ATCC13047 [2] (E. cloacae ATCC13047, test compounds, average of two replicates) of over 100 µM. For the same molecule, the CC50 in the series on A549 cells turned out to be 10 µM. In addition, in the series with E. coli ΔtolC-pore, the “MIC ΔtolC-pore” value was 12.5 µM (≈ 4.22 µg/mL). Also, at AcrA [3], the “effect on proteolytic profile of AcrA” value is given as “did not affect the proteolytic profiles of AcrA”. The “efflux inhibition, SS ratio 32 μM/0 μM” value on AcrAB−TolC came out at 6.5. Besides, in the series on E. cloacae ATCC13047 [4], the “fold MIC (CIP)” value is listed as 1, the “fold MIC (ERY)” value was 8 and the “fold MIC (NOV)” value worked out at 64. Further, the “fold MIC (NOV)” value with K. pneumoniae ATCC13883 [5] worked out at 64.

As for `CC[C@H]1OC(=O)[C@H](C)[C@@H](O[C@H]2C[C@@](C)(OC)[C@@H](O)[C@H](C)O2)[C@H](C)[C@@H](O[C@@H]2O[C@H](C)C[C@H](N(C)C)[C@H]2O)[C@](C)(O)C[C@@H](C)C(=O)[C@H](C)[C@@H](O)[C@]1(C)O` [ERY, erythromycin], the MIC was 400 µg/mL in the series with K. pneumoniae ATCC13883 [1] (setting [7]), 4 to 8 µM (≈ 2.94 to 5.87 µg/mL) in the series on E. coli WT-pore, 64 µM (≈ 47 µg/mL) in the series on E. coli BW25113 (WT) and 400 µg/mL in the series on E. cloacae ATCC13047 [2] (setting [8]). In the series on E. coli ΔtolC, the “MIC ΔtolC” value was 2 µM (≈ 1.47 µg/mL).

As usually defined, the Kd is a measure of binding affinity in units of concentration. With `NC(N)=NCCCC(NC(=O)[C@@H](N)Cc1ccccc1)C(=O)Nc1ccc2ccccc2c1` (stereo partly shown) [MC] (H-Phe-[ξR]-βNA), the Kd at AcrB was 110 µM.

For the molecule `CO[C@@H]1[C@@H](OC(N)=O)[C@@H](O)[C@H](Oc2ccc3c(O)c(NC(=O)c4ccc(O)c(CC=C(C)C)c4)c(=O)oc3c2C)OC1(C)C` [NOV, novobiocin], the MIC with K. pneumoniae ATCC13883 [1] (setting [7]) was 50 µg/mL; with E. coli WT-pore, 32 to 64 µM (≈ 19.6 to 39.2 µg/mL); in the series with E. coli BW25113 (WT) it was 128 µM (≈ 78.4 µg/mL); in the series on E. cloacae ATCC13047 [2] (setting [8]), 400 µg/mL. Further, the “MIC ΔtolC” value against E. coli ΔtolC amounted to 0.5 µM (≈ 0.306 µg/mL). For the same molecule, in the series on E. coli ΔtolC-pore, the “MIC ΔtolC-pore” value stood at 0.125 µM (≈ 0.0766 µg/mL). In addition, the Kd on AcrA [6] is 40 µM.
